Experiments:
Type in all cases: cell-based, Enterococcus faecium
[1] = system: E. faecium D344SRF pCWR624Δpbp5_pbp5_V3; test: MIC by broth microdilution, pbp5_V3; settings: strain pbp5_V3 (loop 625-631); 37 °C, 20 h; n=3
Procedure: (§1) The synthetic genes were purchased from GeneWiz (South Plainfield, NJ). The ribosome binding site sequence AGGAGG (Shine-Dalgarno), and a string of five A’s followed by the sequence […], that corresponds to the first 15 bp found in pbp5 from E. faecium C68 were added upstream of the START codon. The terminator sequence […] was added downstream of the STOP codon. BamHI restriction sites were added to the flanking 5′ and 3′ ends. The synthetic genes were inserted into the vector pCWR624Δpbp5. This vector was derived from pCWR624[10], in which the pbp5 gene from D366 was excised by digestion with BamHI followed by re-ligation of the vector, allowing subsequent insertion of modified synthetic pbp5s into the BamHI site downstream of ftsWEfm and psr from E. faecium C68[10]. The synthetic genes were inserted in a BamHI site located downstream of psr. The proper orientation was confirmed by PCR amplification using the forward primer OR_pbp5_FOR_1 (5′-[…]-3′) and the reverse primer OR_pbp5_REV_1 (5′-[…]-3′). Plasmids were sequence verified for the specific binding site mutations. The resulting constructions were electroporated into the natural pbp5(-) mutant E. faecium D344SRF with a selection on brain heart infusion agar (BHI) plates containing kanamycin (1500 µg/ml).
(§2) E. faecium strains were streaked fresh from −80 °C stored glycerol stocks onto brain heart infusion (BHI) agar plates and incubated for 18 h at 37 °C. Strains harboring the plasmid derivatives were grown under antibiotic pressure on agar plates containing kanamycin at 1500 µg/ml. A single colony was inoculated into BHI or BHI-kanamycin (1500 µg/ml) for overnight cultures (18 h).
(§3) MIC determination was performed using a standard broth microdilution technique in duplicate from independent cultures. Overnight cultures were inoculated into 3 ml of BHI or BHI-kanamycin (1500 µg/ml) broth in a dilution of 1:100 and incubated until an OD600 of ~0.5 was reached. Cultures were diluted 1:1000 and inoculated into the 96-well plates with the corresponding antibiotics to be tested. Plates were incubated at 37 °C for 20 h and read by eye. […]

[2] = system: E. faecium D344SRF pCWR624Δpbp5_pbp5_V4; test: Disk diffusion assay, pbp5_V4; settings: strain pbp5_V4 (D530A_L533A_W457A); 37 °C, 24 h; n=3
Procedure: as §1, §2
(§4) Antibiotic disks used were manufactured by BD BBL^TM. Disk diffusion assays were performed according to the Clinical and Laboratory Standards Institute (CLSI) guidance. Overnight cultures were inoculated into 3 ml of BHI or BHI-kanamycin (1500 µg/ml) broth with a dilution of 1:100 and incubated until an OD600 of ~0.5 was reached. […] The plates were incubated at 37 °C and the zones of inhibition were measured after 24 h. […]

[3] = system: E. faecium D344SRF pCWR624Δpbp5_pbp5_V2; test: Disk diffusion assay, pbp5_V2; settings: strain pbp5_V2 (N523A_Q627A); 37 °C, 24 h; n=3
Procedure: as §1, §2, §4

[4] = system: E. faecium D344SRF pCWR624Δpbp5 (empty plasmid); test: Disk diffusion assay, pCWR624Δpbp5; settings: strain pCWR624Δpbp5; 37 °C, 24 h; n=3
Procedure: as §1, §2, §4

[5] = system: E. faecium D344SRF pCWR624Δpbp5 (empty plasmid); test: MIC by broth microdilution, pCWR624Δpbp5; settings: strain pCWR624Δpbp5; 37 °C, 20 h; n=3
Procedure: as §1, §2, §3

[6] = system: E. faecium D344SRF pCWR624Δpbp5_pbp5_V6; test: MIC by broth microdilution, pbp5_V6; settings: strain pbp5_V6 (E284A_E291A_S294A_N295A); 37 °C, 20 h; n=3
Procedure: as §1, §2, §3

[7] = system: E. faecium D344SRF pCWR624Δpbp5_pbp5_V1; test: MIC by broth microdilution, pbp5_V1; settings: strain pbp5_V1 (N523A); 37 °C, 20 h; n=3
Procedure: as §1, §2, §3

[8] = system: E. faecium D344SRF pCWR624Δpbp5_pbp5_V5; test: Disk diffusion assay, pbp5_V5; settings: strain pbp5_V5 (Q396A_E397A); 37 °C, 24 h; n=3
Procedure: as §1, §2, §4

[9] = system: E. faecium D344SRF, Wild Type; test: MIC by broth microdilution, Wild Type; settings: strain Wild Type; BHI broth microdilution, 37 °C, 20 h, read by eye; n=3
Procedure: as §2
MIC determination was performed using a standard broth microdilution technique in duplicate from independent cultures. Overnight cultures were inoculated into 3 ml of BHI or BHI-kanamycin (1500 µg/ml) broth in a dilution of 1:100 and incubated until an OD600 of ~0.5 was reached. Cultures were diluted 1:1000 and inoculated into the 96-well plates with the corresponding antibiotics to be tested. Plates were incubated at 37 °C for 20 h and read by eye. The MICs were defined as the lowest antibiotic concentration that inhibited growth.

[10] = system: E. faecium D344SRF pCWR624Δpbp5_pbp5_V6; test: Disk diffusion assay, pbp5_V6; settings: strain pbp5_V6 (E284A_E291A_S294A_N295A); 37 °C, 24 h; n=3
Procedure: as §1, §2, §4

[11] = system: E. faecium D344SRF pCWR624 (PBP5 plasmid); test: Disk diffusion assay, pCWR624; settings: strain pCWR624; 37 °C, 24 h; n=3
Procedure: as §1, §2, §4

[12] = system: E. faecium D344SRF pCWR624Δpbp5_pbp5_V5; test: MIC by broth microdilution, pbp5_V5; settings: strain pbp5_V5 (Q396A_E397A); 37 °C, 20 h; n=3
Procedure: as §1, §2, §3

[13] = system: E. faecium D344SRF pCWR624Δpbp5_pbp5_V3; test: Disk diffusion assay, pbp5_V3; settings: strain pbp5_V3 (loop 625-631); 37 °C, 24 h; n=3
Procedure: as §1, §2, §4

[14] = system: E. faecium D344SRF pCWR624Δpbp5_pbp5_V1; test: Disk diffusion assay, pbp5_V1; settings: strain pbp5_V1 (N523A); 37 °C, 24 h; n=3
Procedure: as §1, §2, §4

[15] = system: E. faecium D344SRF pCWR624 (PBP5 plasmid); test: MIC by broth microdilution, pCWR624; settings: strain pCWR624; 37 °C, 20 h; n=3
Procedure: as §1, §2, §3

[16] = system: E. faecium D344SRF, Wild Type; settings: strain Wild Type; disks Ampicillin 10 μg, Penicillin 10 U, Ceftriaxone 30 μg; BHI agar, 37 °C, 24 h; n=3
Procedure: as §2
Antibiotic disks used were manufactured by BD BBL^TM. Disk diffusion assays were performed according to the Clinical and Laboratory Standards Institute (CLSI) guidance. Overnight cultures were inoculated into 3 ml of BHI or BHI-kanamycin (1500 µg/ml) broth with a dilution of 1:100 and incubated until an OD600 of ~0.5 was reached. The OD600 was adjusted to 0.01 to get the inoculum suspension. […] The plates were incubated at 37 °C and the zones of inhibition were measured after 24 h. All experiments were conducted in triplicate.

[17] = system: E. faecium D344SRF pCWR624Δpbp5_pbp5_V2; test: MIC by broth microdilution, pbp5_V2; settings: strain pbp5_V2 (N523A_Q627A); 37 °C, 20 h; n=3
Procedure: as §2

[18] = system: E. faecium D344SRF pCWR624Δpbp5_pbp5_V4; test: MIC by broth microdilution, pbp5_V4; settings: strain pbp5_V4 (D530A_L533A_W457A); 37 °C, 20 h; n=3
Procedure: as §1, with “The resulting constructions were electroporated into the natural pbp5(-) mutant E. faecium D344SRF with a selection on brain heart infusion agar (BHI) plates containing kanamycin (1500 µg/ml).” left out
MIC determination was performed using a standard broth microdilution technique in duplicate from independent cultures. […] Plates were incubated at 37 °C for 20 h and read by eye. […]

| SMILES | MIC (µg/ml) [Range] [1] | Zone Size (mm) [Range] [2] | Zone Size (mm) [Range] [3] | Zone Size (mm) [Range] [4] | MIC (µg/ml) [Range] [5] | MIC (µg/ml) [Range] [6] | MIC (µg/ml) [Range] [7] | Zone Size (mm) [Range] [8] | MIC (µg/ml) [Range] [9] | Zone Size (mm) [Range] [10] | Zone Size (mm) [Range] [11] | MIC (µg/ml) [Range] [12] | Zone Size (mm) [Range] [13] | Zone Size (mm) [Range] [14] | MIC (µg/ml) [Range] [15] | Zone Size (mm) [Range] [16] | MIC (µg/ml) [Range] [17] | MIC (µg/ml) [Range] [18] |
| --- | --- | --- | --- | --- | --- | --- | --- | --- | --- | --- | --- | --- | --- | --- | --- | --- | --- | --- |
| CC1(C)S[C@@H]2[C@H](NC(=O)[C@H](N)c3ccccc3)C(=O)N2[C@H]1C(=O)O [Ampicillin] | < 0.19 [<0.19-0.39] µg/ml | 32 [32] mm | 26 [26-28] mm | 30 [30-32] mm | 0.78 [0.39-1.56] µg/ml | 100 [100] µg/ml | 100 [50-100] µg/ml | 0 [0-10] mm | 0.39 [0.39-0.78] µg/ml | 0 [0-10] mm | 0 [0] mm | 100 [100] µg/ml | 32 [30-32] mm | 16 [14-16] mm | 100 [100->200] µg/ml | 32 [30-32] mm |  |  |
| CC1(C)S[C@@H]2[C@H](NC(=O)Cc3ccccc3)C(=O)N2[C@H]1C(=O)O [Penicillin, penicillin G] | 0.39 [0.39] µg/ml | 32 [30-32] mm | 26 [26-28] mm | 28 [28-32] mm | 0.39 [0.39-1.56] µg/ml | 200 [200] µg/ml | 200 [200] µg/ml | 0 [0] mm | 0.39 [0.39-0.78] µg/ml | 0 [0] mm | 0 [0] mm | 200 [200] µg/ml | 32 [30-32] mm | 0 [0] mm | > 200 [>200] µg/ml | 28 [28-32] mm | 12.5 [12.5-25] µg/ml | 0.39 [0.39] µg/ml |
